What all share (type): in vivo
Assay [1] relates to C. elegans. The assay can be described thus: Oxygen consumption rate (OCR), Seahorse XFe96. As to conditions: 100 mM H2O2 plus supplement (10 mM GA, 100 μM glycine or 500 μM L-serine). Here is the method:
Oxygen consumption of worms was measured with a Seahorse XFe96 system (Seahorse Bioscience, North Billerica, MA), as previously described^4. L3 larvae of the different strains were grown on plates or in liquid culture and supplemented for 2-4 days as described for each experiment. After removing bacteria and debris, approximately 100 worms were pipetted into each well of a 96-well Seahorse XF^e assay plate and OCR was measured until it stabilized. Then, 3 subsequent measurements were made at 6.5-min intervals. Finally, the exact number of worms in each well was counted and used for normalization. A small number of abnormal readings were also filtered out at this stage. On average, 7-8 wells (technical replicates) were used for each condition. Normalized OCR values were averaged for the last 3 measurements for each strain and condition. Four biological replicates were analyzed for each condition.

For assay [2], the system named is C. elegans. The experiment in a line: H2O2 accumulation in worms (Amplex Red). To be noted: co-supplemented with peroxide and GA vs peroxide alone, 3 days. Here is the method:
Hydrogen peroxide was measured using the Amplex Red hydrogen peroxide/peroxidase assay kit (Molecular Probes, Eugene, OR), adapting the protocol to C. elegans. In the presence of hydrogen peroxide, Amplex Red is oxidized by horseradish peroxidase to form a red-fluorescent oxidation product whose fluorescence intensity can be measured.
To measure ROS production from C. elegans, 5000-7000 L1 worms were exposed to each condition for 2-3 days as indicated and then washed four times in 1 ml of the reaction buffer supplied with the kit. Volumes were adjusted to 700-1200 nematodes/50 μl and 50 μl was pipetted into a 96-well plate. A total of 50 μl of the Amplex Red reaction buffer was then added to the wells, and after 1 hr fluorescence was measured with a fluorescence microplate reader using excitation at 530±12.5 nm and fluorescence detection at 590±17.5 nm. Background fluorescence, determined for a no-H2O2 control reaction, was subtracted from each value. The significance of differences between conditions was determined by an unpaired fest. GraphPadPrism 8.0 was used for these calculations. Three biological replicates were carried out for each condition.

The subject of assay [3] is C. elegans. The assay can be described thus: Quantification of glutathione (GSH/GSSG-Glo). Here is the method:
Sample preparation was performed as described previously with some modifications^6. From each condition 10,000 synchronized animals were harvested and washed 3 times with sterile water. […] To thoroughly lyse the worms, 5 cycles of freezing and thawing were performed in a water bath at 37° C., followed by a 1-min sonication. The samples were then centrifuged and the supernatant tested for protein estimation and GSH quantification. Total GSH, GSSG, and GSH/GSSG ratios were quantified using the GSH/GSSG-Glo assay kit (Promega) following the instructions of the manufacturer. Briefly, each sample was tested in triplicate in 96-well culture plates with total glutathione or GSSG lysis reagent, for total glutathione or GSSG measurement, respectively. The GSH probe, luciferin-NT, was converted to luciferin, which is coupled to a firefly luciferase. The plates were then read in an […] plate reader (Perkin Elmer, United States). The GSSG value was subtracted from the total glutathione to calculate GSH levels and GSH/GSSG ratio. Four biological replicates were analyzed for each condition.

With `O=C(O)CO` [GA, glycolic acid], the “Respiration rate (OCR)” value in the assay with C. elegans [1] is recorded as “able to restore both traits”. For the same compound, the “Accumulation of H2O2” value in the assay on C. elegans [2] was “diminished”. For the same compound, the GSH/GSSG ratio with C. elegans [3] (H2O2+GA, control 107.5) worked out at 77.4. Besides, the Total glutathione in the assay on C. elegans [3] (H2O2 in the presence of GA (10 mM), 3 days) is recorded as 91 % of the control. The “Oxidized form of glutathione (GSSG)” value in the assay on C. elegans [3] (H2O2 with addition of GA) is 140 % of the control. Besides, in the assay with C. elegans [3] (peroxide-treated ghpr-1 and ghpr-1, gox-1, ldh-1 mutant strains), the “Total glutathione, effect of GA addition” value is “unaffected”. Besides, in the assay with C. elegans [3] (peroxide-treated ghpr-1 and triple mutants co-incubated with GA), the “Increase in GSSG, rescue by GA” value is recorded as “not rescued”.

The record behind these values is patent publication US20230414657A1, “Novel compositions for neutralizing toxic effects of hydrogen peroxide in living cells or tissues” (Dzala LLC, priority 2020, published 2023).
